US8580747B2, “Cyclic natriuretic peptide constructs” (Palatin Technologies, Inc., priority 2006, dated 2013)
Bridge positions count the residues as written; N and C are the ends. Square brackets hold non-standard residues; d marks the D form. Peptide text beside a SMILES is read from it. * marks the point of attachment. Piperazin2one(3S-Bu,6R-CO) = CCCC[C@@H]1NC[C@H](C(=O)*)NC1=O; X1 = N=C(N)NCCC[C@H]1C(=O)N[C@@H](C(N)=O)CN1*; X3 = CC(C)C[C@@H]1NC[C@H](C(=O)*)NC1=O; Nle = CCCC[C@H](N)C(=O)O

conditions: rat, in vivo, iv, 2 mg/kg

Row | Structure (SMILES) | AUC [µM·h] | Vd [L/kg] | clearance [mL/min/kg] | half-life [min]
1 | CCCC[C@@H]1NC[C@H](C(=O)N[C@H]2CSSC[C@@H](C(=O)N[C@@H](Cc3ccc(O)cc3)C(=O)N3C[C@H](C(N)=O)NC(=O)[C@@H]3CCCNC(=N)N)NC(=O)[C@H](CO)NC(=O)[C@H]([C@@H](C)CC)NC(=O)[C@H](CCCNC(=N)N)NC(=O)[C@H](CC(=O)O)NC(=O)[C@H](CCCC)NC(=O)[C@@H](CCCNC(=N)N)NC(=O)CNC(=O)CNC(=O)[C@H](Cc3ccccc3)NC(=O)[C@H](Cc3c[nH]cn3)NC2=O)NC1=O [1-42] ({Piperazin2one(3S-Bu,6R-CO)}-CHFGG[dR][Nle]DRISCY-X1; disulfide 1-12) | 0.369 | 0.7 | 50 | 18
2 | CCCC[C@@H]1NC[C@H](C(=O)N[C@H]2CSSC[C@@H](C(=O)N[C@@H](Cc3ccc(O)cc3)C(=O)N3C[C@H](C(N)=O)NC(=O)[C@@H]3CCCNC(=N)N)NC(=O)[C@H](CO)NC(=O)[C@H]([C@@H](C)CC)NC(=O)[C@H](CCCNC(=N)N)NC(=O)[C@H](CC(=O)O)NC(=O)[C@H](CCCC)NC(=O)[C@H](CCCNC(=N)N)NC(=O)CNC(=O)[C@@H](C)NC(=O)[C@H](Cc3ccccc3)NC(=O)[C@H](Cc3c[nH]cn3)NC2=O)NC1=O [1-68] | 0.478 | 0.5 | 40 | 18
3 | CCCC[C@@H]1NC[C@H](C(=O)N[C@H]2CSSC[C@@H](C(=O)N[C@@H](Cc3ccc(O)cc3)C(=O)N3C[C@H](C(N)=O)NC(=O)[C@@H]3CCCNC(=N)N)NC(=O)[C@H](CO)NC(=O)[C@H]([C@@H](C)CC)NC(=O)[C@H](CCCNC(=N)N)NC(=O)[C@H](C)NC(=O)[C@H](CCCC)NC(=O)[C@H](CCCNC(=N)N)NC(=O)CNC(=O)CNC(=O)[C@H](Cc3ccccc3)NC(=O)[C@H](Cc3c[nH]cn3)NC2=O)NC1=O [1-35] | 0.01 | 57 | 1860 | 24

More lines, now with the values ahead:

Row | AUC [µM·h] | Vd [L/kg] | clearance [mL/min/kg] | half-life [min] | Structure (SMILES)
4 | 0.19 | 1 | 94 | 12 | CCCC[C@@H]1NC(=O)[C@H](CCCNC(=N)N)NC(=O)CNC(=O)CNC(=O)[C@H](Cc2ccccc2)NC(=O)[C@H](Cc2c[nH]cn2)NC(=O)[C@@H](NC(=O)[C@H]2CN[C@@H](CC(C)C)C(=O)N2)CSSC[C@@H](C(=O)N[C@@H](Cc2ccc(O)cc2)C(=O)N2C[C@H](C(N)=O)NC(=O)[C@@H]2CCCNC(=N)N)NC(=O)[C@H](CO)NC(=O)[C@H]([C@@H](C)CC)NC(=O)[C@H](CCCNC(=N)N)NC(=O)[C@H](CC(=O)O)NC1=O [1-51] (X3-CHFGGR[Nle]DRISCY-X1; disulfide 1-12)
5 | 0.351 | 1.1 | 51 | 24 | CCCC[C@@H]1NC[C@H](C(=O)N[C@H]2CSSC[C@@H](C(=O)N[C@@H](Cc3ccc(O)cc3)C(=O)N3C[C@H](C(N)=O)NC(=O)[C@@H]3CCCNC(=N)N)NC(=O)[C@H](CO)NC(=O)[C@H]([C@@H](C)CC)NC(=O)[C@H](CCCNC(=N)N)NC(=O)[C@H](CC(=O)O)NC(=O)[C@H](CCCC)NC(=O)[C@H](CCCNC(=N)N)NC(=O)CNC(=O)CNC(=O)[C@H](Cc3ccccc3)NC(=O)[C@@H](Cc3c[nH]cn3)NC2=O)NC1=O [1-28] ({Piperazin2one(3S-Bu,6R-CO)}-C[dH]FGGR[Nle]DRISCY-X1; disulfide 1-12)
6 | 0.142 | 2.8 | 134 | 18 | CCCC[C@@H]1NC[C@H](C(=O)N[C@H]2CSSC[C@@H](C(=O)N[C@@H](Cc3ccc(O)cc3)C(=O)N3C[C@H](C(N)=O)NC(=O)[C@@H]3CCCNC(=N)N)NC(=O)[C@H](CO)NC(=O)[C@H]([C@@H](C)CC)NC(=O)[C@H](CCCNC(=N)N)NC(=O)[C@H](CC(=O)O)NC(=O)[C@H](CCCC)NC(=O)[C@H](CCCNC(=N)N)NC(=O)CNC(=O)CNC(=O)[C@@H](Cc3ccccc3)NC(=O)[C@H](Cc3c[nH]cn3)NC2=O)NC1=O [1-39] ({Piperazin2one(3S-Bu,6R-CO)}-CH[dF]GGR[Nle]DRISCY-X1; disulfide 1-12)
